Source: US12466812B2, “Pyridinyltriazine derivative having protein kinase inhibitory activity, and pharmaceutical composition for preventing, ameliorating, or treating cancer comprising same” (KOREA INSTITUTE OF SCIENCE AND TECHNOLOGY, priority 2019, dated 2025)

Experiments:
[1] = system: UMUC3, bladder cancer cell line overexpressing FGFR1 (xenograft); test: In-vivo efficacy in animal model transplanted with bladder cancer cell line; conditions: UMUC3 xenograft in BALB/C nude mice, oral 20 mpk once a day, compared to control drug BGJ398
Source text: Specifically, 6-7 week old BALB/C nude mice xenografted with UMUC3, which was a bladder cancer cell line overexpressing FGFR1, were used as an animal model. BGJ398 (manufactured by Novartis), a known FGFR inhibitor, was used as a control drug. A mixed solution (pH=4) of 5% N-methylpyrrolidinone (NMP), 6% Solutol, 20% polyethylene glycol (PEG400), and 69′% distilled water was used as a vehicle. At this time, the drug was orally administered at a concentration of 20 mpk (mg/kg) once a day.

[2] = system: AN3-CA; test: Pan-FGFR mutant cellular activity; type: cell-based; conditions: Homo sapiens, mutant cell, Table 4, read-out: GI50, AN3-CA (breast cancer cell line)
Method: (§1) The inhibitory activity against pan-FGFR mutants of the compounds synthesized in Examples 1, 8, 13, 22, and 24 was measured, the inhibitory activity on each of enzymatic activity and cellular activity was evaluated, and the results are shown in Tables 3 and 4 below.

[3] = system: J82 (bladder cancer cell line); test: Pan-FGFR mutant cellular activity; type: cell-based; conditions: Table 4
Method: as §1

[4] = system: UMUC3 (bladder cancer cell line); test: Pan-FGFR mutant cellular activity; type: cell-based; conditions: Homo sapiens, Table 4
Method: as §1

[5] = system: KMS-11 (myeloma cell line); test: Pan-FGFR mutant cellular activity; type: cell-based; conditions: Homo sapiens, Table 4
Method: as §1

[6] = molecular target: LCK (Homo sapiens, UniProt P06239); test: Kinase panel biochemical assay; conditions: single concentration of 1 μM; panel of 369 kinases; read-out: kinase activity inhibited (%), LCK
Method: (§2) In order to measure the inhibitory activity (%) against protein kinases of the compounds of the present invention, biochemical assays were performed on a full kinase panel composed of 369 kinases.

[7] = molecular target: FGFR4 (Homo sapiens, UniProt P22455); test: Kinase panel biochemical assay; conditions: single concentration of 1 μM; panel of 369 kinases; read-out: kinase activity inhibited (%), FGFR4
Method: as §2

[8] = molecular target: FMS (Homo sapiens, UniProt P07333); test: Kinase panel biochemical assay; conditions: single concentration of 1 μM; panel of 369 kinases; read-out: kinase activity inhibited (%), FMS
Method: as §2

[9] = molecular target: DDR1 (Homo sapiens, UniProt Q08345); test: Kinase panel biochemical assay; conditions: single concentration of 1 μM; panel of 369 kinases; read-out: kinase activity inhibited (%), DDR1
Method: as §2

[10] = molecular target: IRAK1 (Homo sapiens, UniProt P51617); test: Kinase panel biochemical assay; conditions: single concentration of 1 μM; panel of 369 kinases; read-out: kinase activity inhibited (%), IRAK1
Method: as §2

FMS, sequence (P07333 20-972): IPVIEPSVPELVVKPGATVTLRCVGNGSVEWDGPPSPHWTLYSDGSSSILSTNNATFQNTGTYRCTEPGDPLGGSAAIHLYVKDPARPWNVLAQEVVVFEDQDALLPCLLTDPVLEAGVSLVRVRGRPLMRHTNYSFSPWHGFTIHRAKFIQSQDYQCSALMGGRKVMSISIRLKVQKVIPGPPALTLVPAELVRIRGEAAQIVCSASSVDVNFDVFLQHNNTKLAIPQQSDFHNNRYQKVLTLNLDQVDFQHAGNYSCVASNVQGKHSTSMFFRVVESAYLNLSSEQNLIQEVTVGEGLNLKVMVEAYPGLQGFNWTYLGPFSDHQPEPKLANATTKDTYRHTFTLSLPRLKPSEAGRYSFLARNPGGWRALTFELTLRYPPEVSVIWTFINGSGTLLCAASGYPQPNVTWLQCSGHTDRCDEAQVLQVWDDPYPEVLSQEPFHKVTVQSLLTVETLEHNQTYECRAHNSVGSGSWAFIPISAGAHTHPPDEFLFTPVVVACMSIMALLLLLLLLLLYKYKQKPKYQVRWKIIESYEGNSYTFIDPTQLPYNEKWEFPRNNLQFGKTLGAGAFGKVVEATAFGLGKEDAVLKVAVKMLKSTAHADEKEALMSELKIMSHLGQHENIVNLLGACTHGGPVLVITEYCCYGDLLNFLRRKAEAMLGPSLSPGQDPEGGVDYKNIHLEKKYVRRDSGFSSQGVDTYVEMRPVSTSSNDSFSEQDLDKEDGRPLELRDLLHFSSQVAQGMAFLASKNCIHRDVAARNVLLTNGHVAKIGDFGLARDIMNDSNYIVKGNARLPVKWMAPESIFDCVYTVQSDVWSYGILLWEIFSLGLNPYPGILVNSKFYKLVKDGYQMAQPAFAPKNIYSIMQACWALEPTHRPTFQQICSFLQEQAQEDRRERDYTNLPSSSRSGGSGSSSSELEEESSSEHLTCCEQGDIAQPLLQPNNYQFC
DDR1, sequence (Q08345 19-913): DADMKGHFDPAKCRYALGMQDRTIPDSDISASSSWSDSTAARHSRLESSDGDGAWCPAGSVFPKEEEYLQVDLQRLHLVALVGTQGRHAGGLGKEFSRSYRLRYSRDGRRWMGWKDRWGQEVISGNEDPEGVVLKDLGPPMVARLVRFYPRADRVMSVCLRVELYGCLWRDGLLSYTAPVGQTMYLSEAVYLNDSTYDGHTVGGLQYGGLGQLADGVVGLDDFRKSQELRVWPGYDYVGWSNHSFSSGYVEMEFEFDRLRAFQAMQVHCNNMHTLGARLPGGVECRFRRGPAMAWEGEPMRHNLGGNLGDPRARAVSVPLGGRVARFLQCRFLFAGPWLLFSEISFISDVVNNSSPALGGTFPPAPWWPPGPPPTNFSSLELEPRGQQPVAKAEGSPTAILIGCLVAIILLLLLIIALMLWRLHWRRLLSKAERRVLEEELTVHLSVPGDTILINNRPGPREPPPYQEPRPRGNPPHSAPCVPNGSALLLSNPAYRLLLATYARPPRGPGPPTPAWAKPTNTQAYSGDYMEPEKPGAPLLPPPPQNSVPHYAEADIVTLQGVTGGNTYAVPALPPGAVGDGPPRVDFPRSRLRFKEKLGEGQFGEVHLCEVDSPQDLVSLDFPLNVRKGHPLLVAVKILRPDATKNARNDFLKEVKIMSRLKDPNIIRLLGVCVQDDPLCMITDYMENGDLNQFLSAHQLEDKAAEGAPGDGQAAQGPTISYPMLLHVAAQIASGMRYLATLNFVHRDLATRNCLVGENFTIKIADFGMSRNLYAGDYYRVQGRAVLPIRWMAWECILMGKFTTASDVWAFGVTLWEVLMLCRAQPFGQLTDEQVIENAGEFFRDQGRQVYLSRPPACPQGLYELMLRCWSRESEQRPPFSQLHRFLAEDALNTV
FGFR4, sequence (P22455 22-802): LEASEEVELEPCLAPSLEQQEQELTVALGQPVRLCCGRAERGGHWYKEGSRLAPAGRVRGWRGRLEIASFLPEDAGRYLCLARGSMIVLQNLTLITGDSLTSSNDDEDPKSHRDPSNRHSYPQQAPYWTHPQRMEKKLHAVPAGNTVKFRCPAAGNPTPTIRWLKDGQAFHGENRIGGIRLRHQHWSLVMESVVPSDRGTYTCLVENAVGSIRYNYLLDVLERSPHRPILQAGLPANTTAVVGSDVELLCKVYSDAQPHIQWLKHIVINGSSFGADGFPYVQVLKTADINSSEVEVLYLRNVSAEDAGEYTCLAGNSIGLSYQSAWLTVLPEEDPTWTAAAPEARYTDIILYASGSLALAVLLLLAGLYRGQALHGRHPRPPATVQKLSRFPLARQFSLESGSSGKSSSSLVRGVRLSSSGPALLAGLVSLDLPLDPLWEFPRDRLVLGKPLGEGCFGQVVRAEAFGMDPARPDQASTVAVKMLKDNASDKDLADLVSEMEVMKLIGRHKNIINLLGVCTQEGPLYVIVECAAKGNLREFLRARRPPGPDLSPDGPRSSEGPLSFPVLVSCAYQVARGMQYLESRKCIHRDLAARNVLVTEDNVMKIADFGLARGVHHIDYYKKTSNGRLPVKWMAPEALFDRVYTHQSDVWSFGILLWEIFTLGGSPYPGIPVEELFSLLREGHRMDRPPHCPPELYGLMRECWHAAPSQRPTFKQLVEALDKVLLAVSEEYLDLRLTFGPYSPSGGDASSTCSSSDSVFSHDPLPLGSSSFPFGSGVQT
LCK, sequence (P06239 whole entry): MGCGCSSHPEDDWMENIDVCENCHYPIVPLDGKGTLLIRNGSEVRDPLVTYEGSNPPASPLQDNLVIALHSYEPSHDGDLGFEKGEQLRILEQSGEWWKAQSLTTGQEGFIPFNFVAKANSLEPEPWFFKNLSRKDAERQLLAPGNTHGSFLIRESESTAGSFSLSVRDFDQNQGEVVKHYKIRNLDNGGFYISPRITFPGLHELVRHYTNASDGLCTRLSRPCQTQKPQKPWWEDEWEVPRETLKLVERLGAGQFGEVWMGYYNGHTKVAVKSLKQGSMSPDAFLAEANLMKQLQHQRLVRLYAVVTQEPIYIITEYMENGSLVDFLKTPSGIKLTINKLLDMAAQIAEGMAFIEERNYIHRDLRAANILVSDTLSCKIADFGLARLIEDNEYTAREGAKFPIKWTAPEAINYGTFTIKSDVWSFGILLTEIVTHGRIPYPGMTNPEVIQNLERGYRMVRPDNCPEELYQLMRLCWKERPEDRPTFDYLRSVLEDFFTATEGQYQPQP
IRAK1, sequence (P51617 whole entry): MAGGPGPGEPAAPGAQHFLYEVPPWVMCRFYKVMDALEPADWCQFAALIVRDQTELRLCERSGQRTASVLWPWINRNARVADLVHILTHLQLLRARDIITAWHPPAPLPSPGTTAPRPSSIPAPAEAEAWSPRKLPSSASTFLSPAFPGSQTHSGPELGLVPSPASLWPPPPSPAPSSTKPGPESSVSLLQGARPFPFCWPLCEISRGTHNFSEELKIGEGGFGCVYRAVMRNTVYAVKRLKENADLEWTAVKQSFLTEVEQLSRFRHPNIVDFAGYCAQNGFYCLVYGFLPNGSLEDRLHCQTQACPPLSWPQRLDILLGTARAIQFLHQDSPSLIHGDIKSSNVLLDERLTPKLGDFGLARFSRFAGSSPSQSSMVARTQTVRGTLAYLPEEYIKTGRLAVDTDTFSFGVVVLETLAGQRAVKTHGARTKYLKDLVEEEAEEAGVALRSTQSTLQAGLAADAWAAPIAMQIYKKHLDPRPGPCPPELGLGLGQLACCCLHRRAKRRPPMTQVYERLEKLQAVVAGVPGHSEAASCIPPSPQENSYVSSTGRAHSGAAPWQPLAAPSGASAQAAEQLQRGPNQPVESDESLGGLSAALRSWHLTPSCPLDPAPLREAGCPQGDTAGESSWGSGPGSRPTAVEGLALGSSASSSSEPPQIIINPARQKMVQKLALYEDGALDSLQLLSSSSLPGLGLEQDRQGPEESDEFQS

CCN1CCN(c2ccc(Nc3ncnc(-c4cccnc4Nc4c(Cl)c(OC)cc(OC)c4Cl)n3)cc2)CC1 [Example 1]
tumor volume reduction effect [1]: excellent tumor volume reduction effect | GI50 [2]: < 1000 nM | GI50 [3]: 1000 to 10000 nM | GI50 [4]: 1000 to 10000 nM | GI50 [5]: < 1000 nM | inhibition at 1 µM [6]: ≥ 90% | inhibition at 1 µM [7]: ≥ 90% | inhibition at 1 µM [8]: ≥ 90% | inhibition at 1 µM [9]: ≥ 90% | inhibition at 1 µM [10]: ≥ 90%
